Measured values reported in PubChem BioAssay (NCI).
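Grown in 96-well plates, cells were treated for 48 hours with each compound at five concentrations. Insufficient inhibition: endpoint recorded as highest concentration tested. GI50 = concentration required for 50% inhibition of growth. The concentration for full growth arrest is given as TGI.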

How the values were obtained:
Assay in all cases: NCI-60 cell line screen, 48 h
MOLT-4 leukemia = system: MOLT-4 leukemia
CCRF-CEM leukemia = system: CCRF-CEM leukemia
HCT-15 colon = system: HCT-15 colon
NCI-H226 lung = system: NCI-H226 lung
CAKI-1 renal = system: CAKI-1 renal
HT29 colon = system: HT29 colon
NCI-H460 lung = system: NCI-H460 lung
BT-549 breast = system: BT-549 breast
ACHN renal = system: ACHN renal
SR leukemia = system: SR leukemia
M14 melanoma = system: M14 melanoma
OVCAR-8 ovarian = system: OVCAR-8 ovarian
786-0 renal = system: 786-0 renal
DU-145 prostate = system: DU-145 prostate
LOX IMVI melanoma = system: LOX IMVI melanoma
SK-OV-3 ovarian = system: SK-OV-3 ovarian
TK-10 renal = system: TK-10 renal
SF-268 CNS = system: SF-268 CNS
OVCAR-3 ovarian = system: OVCAR-3 ovarian
MALME-3M melanoma = system: MALME-3M melanoma
NCI-H23 lung = system: NCI-H23 lung
U251 CNS = system: U251 CNS
HOP-92 NSCLC = system: HOP-92 NSCLC
RPMI-8226 leukemia = system: RPMI-8226 leukemia
COLO 205 colon = system: COLO 205 colon
HS 578T breast = system: HS 578T breast
T-47D breast = system: T-47D breast
MDA-MB-435 = system: MDA-MB-435
HCT-116 colon = system: HCT-116 colon

In the case of CN([N-]C(=O)CC(=O)[N-]N(C)C(=S)c1ccccc1)C(=S)c1ccccc1.[Cu+2], the GI50 (MOLT-4 leukemia) is reported as < 10.8 nM, the TGI (MOLT-4 leukemia) is reported as 220 nM and the GI50 (CCRF-CEM leukemia) is reported as < 10 nM. For the same compound, the TGI (CCRF-CEM leukemia) was 121 nM, the GI50 (HCT-15 colon) was 22.8 nM and the TGI (HCT-15 colon) was 130 nM. The GI50 (NCI-H226 lung) was 183 nM, the TGI (NCI-H226 lung) was 467 nM and the GI50 (CAKI-1 renal) was 45.9 nM. It also gave a TGI (CAKI-1 renal) of 159 nM, a TGI (HT29 colon) of 27.5 nM and a GI50 (NCI-H460 lung) of 22.7 nM. The TGI (NCI-H460 lung) was 140 nM, the GI50 (BT-549 breast) was 138 nM and the TGI (BT-549 breast) was 271 nM. The GI50 (ACHN renal) was 82.5 nM, the TGI (ACHN renal) was 220 nM and the GI50 (SR leukemia) was < 10 nM. For the same compound, the GI50 (M14 melanoma) was 37.7 nM, the TGI (M14 melanoma) was 172 nM and the GI50 (OVCAR-8 ovarian) was 59.8 nM. For the same compound, the TGI (OVCAR-8 ovarian) was 232 nM, the GI50 (786-0 renal) was 50.3 nM and the TGI (786-0 renal) was 116 nM. For the same compound, the GI50 (DU-145 prostate) was 33 nM, the TGI (DU-145 prostate) was 133 nM and the GI50 (LOX IMVI melanoma) was < 12.9 nM. The TGI (LOX IMVI melanoma) was 68.3 nM, the GI50 (SK-OV-3 ovarian) was 26.3 nM and the TGI (SK-OV-3 ovarian) was 114 nM. The GI50 (TK-10 renal) was 46.1 nM, the TGI (TK-10 renal) was 174 nM and the GI50 (SF-268 CNS) was 37 nM. The TGI (SF-268 CNS) was 176 nM, the GI50 (OVCAR-3 ovarian) was < 10 nM and the TGI (OVCAR-3 ovarian) was 30 nM. The GI50 (MALME-3M melanoma) was 19.4 nM, the TGI (MALME-3M melanoma) was 58.5 nM and the GI50 (NCI-H23 lung) was 24.1 nM. It also gave a TGI (NCI-H23 lung) of 141 nM, a GI50 (U251 CNS) of 33.1 nM and a TGI (U251 CNS) of 125 nM. The GI50 (HOP-92 NSCLC) was 33.3 nM, the TGI (HOP-92 NSCLC) was 98 nM and the GI50 (RPMI-8226 leukemia) was 28.4 nM. For the same compound, the TGI (RPMI-8226 leukemia) was 224 nM, the GI50 (COLO 205 colon) was < 10 nM and the TGI (COLO 205 colon) was 25.6 nM. The GI50 (HS 578T breast) was 85.1 nM, the TGI (HS 578T breast) was 619 nM and the GI50 (T-47D breast) was < 10 nM. The TGI (T-47D breast) was 101 nM, the GI50 (MDA-MB-435) was 43.7 nM and the TGI (MDA-MB-435) was 171 nM. For the same compound, the GI50 (HCT-116 colon) was < 10 nM.
